In one assay the target is EP300 (Homo sapiens, UniProt Q09472). As to the kind of experiment: Histone acetyltransferase inhibitory activity against EP300 (Test Example 1). It is filed as biochemical. As to conditions: 50 ng/mL EP300, 2 μM Acetyl-CoA, 100 nM Histone H4(1-25)-GSGSK (Biotin), 28° C. for 1 hour. Put shortly:
(§1)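 Enzyme (50 ng/mL EP300 or 125 ng/mL CREBBP) incubated 1 h at 28° C with 2 μM acetyl-CoA, 100 nM biotinylated histone H4(1-25) peptide and 10 to 0.0006 μM compound in pH 8.0 Tris buffer with 330 nM trichostatin A, 1% DMSO. Reaction stopped with Lys-CoA; acetylation read by TR-FRET (Eu-anti pan-Ac/Sta-ULight) after overnight room-temperature incubation.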

The target of another assay is CREBBP (Homo sapiens, UniProt Q92793). As to the kind of experiment: Histone acetyltransferase inhibitory activity against CREBBP (Test Example 1). It is filed as biochemical. As to conditions: 125 ng/mL CREBBP, 2 μM Acetyl-CoA, 100 nM Histone H4(1-25)-GSGSK (Biotin), 28° C. for 1 hour. Put shortly:
as §1

The test system of assay [1] is TE-8 cells. As to the kind of experiment: Antitumor activity in TE-8 cell subcutaneous transplant model (Test Example 5). It is filed as in vivo, female BALB/c-nu/nu mice. As to conditions: TE-8 subcutaneous transplant model, dose 6 mg/kg/day, test end day. The source says: [Test Example 5] Evaluation of Antitumor Activity in TE-8 Cell Subcutaneous Transplant Model
TE-8 cells were transplanted at a rate of 1×10^7 cells/head subcutaneously into a right abdominal site of each of female BALB/c-nu/nu mice, and 9 days after (Example 73) or 10 days after (Examples 35 and 84), the mice were grouped into groups each consisting of 5 mice based on an estimated tumor volume (longer diameter×shorter diameter×shorter diameter/2) and the weight. The TE-8 cells were purchased from Riken Cell Bank. The female BALB/c-nu/nu mice were purchased from Charles River Laboratories Japan, Inc.
From the day of grouping, the compound of Example 73 at a dose set to 2 mg/kg/day was orally administered in accordance with a schedule of twice a day continuously for 9 days (BID x 9). The estimated tumor volume of each individual was measured from the day of grouping until 18 days after the transplantation (test end day).
Besides, from the day of grouping, the compound of […] at a dose set to 2 mg/kg/day was orally administered in accordance with a schedule of twice a day continuously for 11 days (BID x 11). The estimated tumor volume of each individual was measured from the day of grouping until 21 days after the transplantation (test end day).
(§2) The antitumor activity in LK2 cell subcutaneous transplant model of Test Example 4, the antitumor activity in TE-8 cell subcutaneous transplant model of Test Example 5, the antitumor activity in KARPASS-422 cell subcutaneous transplant model of Test Example 6, the antitumor activity in NMC10-15 cell subcutaneous transplant model of Test Example 7, and the antitumor activity in VCaP cell subcutaneous transplant model of Test Example 8 were respectively calculated on the end dates of the tests in accordance with the following equation: Tumor Growth Inhibition Rate %=(1−TVCt/TVCc)×100 TVC=(individual tumor volume on test end day)−(individual tumor volume on grouping day)
TVCt: average of TVC values of administration group
TVCc: average of TVC values of non-administration group

For the next assay, the system named is KARPAS-422 cells. As to the kind of experiment: Antitumor activity in KARPAS-422 cell subcutaneous transplant model (Test Example 6). It is filed as in vivo, female SCID mice. As to conditions: KARPAS422 subcutaneous transplant model, dose 6 mg/kg/day, test end day.
Excerpt: [Test Example 6] Evaluation of Antitumor Activity in KARPAS-422 Cell Subcutaneous Transplant Model
KARPAS-422 cells of human diffuse large B-cell lymphoma were transplanted at a rate of 2×10^7 cells/head subcutaneously into a right abdominal site of each of female SCID mice, and 10 days after, the mice were grouped into groups each consisting of 5 mice based on an estimated tumor volume (longer diameter×shorter diameter×shorter diameter/2) and the weight. The KARPAS-422 cells were purchased from Deutsche Sammlung von Mikroorganismen und Zelkulturen GmbH. […] The estimated tumor volume of each individual was measured from the day of grouping until 28 days after the transplantation (test end day).
as §2, with “grouping day) […]” for “grouping day)”

Assay [2] concerns LK2 cells. As to the kind of experiment: Antitumor activity in LK2 cell subcutaneous transplant model (Test Example 4). It is filed as in vivo, female BALB/c-nu/nu mice. As to conditions: dose 12.5 mg/kg/day, test end day.
Excerpt: [Test Example 4] Evaluation of Antitumor Activity in LK2 Cell Subcutaneous Transplant Model
LK2 cells were transplanted at a rate of 2×10^6 cells/head subcutaneously into a right abdominal site of each of female BALB/c-nu/nu mice, and 7 days after, the mice were grouped into groups each consisting of 5 mice based on an estimated tumor volume (longer diameter×shorter diameter×shorter diameter/2) and the weight. The LK2 cells were purchased from Human Science Research Resources Bank. […] The estimated tumor volume of each individual was measured from the day of grouping until 18 days after the transplantation (test end day).
as §2
TVCt: average of TVC values of administration group […]

In a further assay the test system is VCaP cells. As to the kind of experiment: Antitumor activity in VCaP cell subcutaneous transplant model (Test Example 8). It is filed as in vivo, male NSG mice. As to conditions: oral.
Excerpt: [Test Example 8] Evaluation of Antitumor Activity in VCaP Cell Subcutaneous Transplant Model
VCaP cells derived from human prostate cancer were transplanted at a rate of 1×10^7 cells/head subcutaneously into a right abdominal site of each of male NSG mice, and 8 days after, the mice were grouped into groups each consisting of 5 mice based on an estimated tumor volume (longer diameter×shorter diameter×shorter diameter/2) and the weight. The VCaP cells were purchased from American Type Culture Collection. […] The estimated tumor volume of each individual was measured from the day of grouping until 24 days after the transplantation (test end day).
as §2, with “grouping day) […]” for “grouping day)”

Assay [3] concerns TE-8 cells. As to the kind of experiment: Cell growth inhibitory activity, TE-8 cells (Test Example 3). As to conditions: Homo sapiens, 72 h, cultured for 3 days, CellTiter-Glo. It is filed as cell-based. Put shortly: (§3)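 LK2 and TE-8 […] cells in RPMI 1640 with 10% FBS exposed to 10-point 4-fold dilutions (10 mM to 38 nM, stock series) for 3 days. ATP luminescence (CellTiter-Glo 2.0) at day 0 and day 3 gave survival as (T3−C0)/(C3−C0)×100; GI50 from semilog plot.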
(In general: ATP-based viability assays read luminescence as a measure of living cells.)

Another assay has as its system NMC10-15 cells. As to the kind of experiment: Antitumor activity in NMC10-15 cell subcutaneous transplant model (Test Example 7). It is filed as in vivo, female BALB/c-nu/nu mice. As to conditions: NMC10-15 subcutaneous transplant model, oral, QD×9, 15 days after transplantation.
Excerpt: [Test Example 7] Evaluation of Antitumor Activity in NMC10-15 Cell Subcutaneous Transplant Model
NMC10-15 cells derived from human nut midline carcinoma were transplanted at a rate of 5×10^6 cells/head subcutaneously into a right abdominal site of each of female BALB/c-nu/nu mice, and 6 days after, the mice were grouped into groups each consisting of 5 mice based on an estimated tumor volume (longer diameter×shorter diameter×shorter diameter/2) and the weight. […] The estimated tumor volume of each individual was measured from the day of grouping until 15 days after the transplantation (test end day).
as §2, with “grouping day) […]” for “grouping day)”

Assay [4] relates to LK2 cells. As to the kind of experiment: Cell growth inhibitory activity, LK2 cells (Test Example 3). It is filed as cell-based. As to conditions: Homo sapiens, LK-2, 72 h, cultured for 3 days, CellTiter-Glo. Put shortly: as §3
The next assay has as its system H3K27Ac. As to the kind of experiment: Intracellular H3K27Ac inhibitory activity in LK2 cells (Test Example 2). It is filed as cell-based. As to conditions: Homo sapiens, LK-2, cultured with compound for 3 hours, read-out: Test Example 2 H3K27Ac Inhibition (LK2) IC50. The procedure, abridged: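 Human squamous lung cancer LK2 cells (40000/well) cultured overnight at 37 °C, 5% CO2 before treatment. After paraformaldehyde fixation, peroxide quench and blocking, H3K27 acetylation detected with anti-acetyl-H3K27 rabbit mAb (4 °C overnight) and HRP secondary; chemiluminescent read-out.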

The source of these data is patent US11274100B2, “EP300/CREBBP inhibitor” (Daiichi Sankyo Company, Limited, priority 2017, dated 2022).

Chain of EP300 (Q09472 whole entry): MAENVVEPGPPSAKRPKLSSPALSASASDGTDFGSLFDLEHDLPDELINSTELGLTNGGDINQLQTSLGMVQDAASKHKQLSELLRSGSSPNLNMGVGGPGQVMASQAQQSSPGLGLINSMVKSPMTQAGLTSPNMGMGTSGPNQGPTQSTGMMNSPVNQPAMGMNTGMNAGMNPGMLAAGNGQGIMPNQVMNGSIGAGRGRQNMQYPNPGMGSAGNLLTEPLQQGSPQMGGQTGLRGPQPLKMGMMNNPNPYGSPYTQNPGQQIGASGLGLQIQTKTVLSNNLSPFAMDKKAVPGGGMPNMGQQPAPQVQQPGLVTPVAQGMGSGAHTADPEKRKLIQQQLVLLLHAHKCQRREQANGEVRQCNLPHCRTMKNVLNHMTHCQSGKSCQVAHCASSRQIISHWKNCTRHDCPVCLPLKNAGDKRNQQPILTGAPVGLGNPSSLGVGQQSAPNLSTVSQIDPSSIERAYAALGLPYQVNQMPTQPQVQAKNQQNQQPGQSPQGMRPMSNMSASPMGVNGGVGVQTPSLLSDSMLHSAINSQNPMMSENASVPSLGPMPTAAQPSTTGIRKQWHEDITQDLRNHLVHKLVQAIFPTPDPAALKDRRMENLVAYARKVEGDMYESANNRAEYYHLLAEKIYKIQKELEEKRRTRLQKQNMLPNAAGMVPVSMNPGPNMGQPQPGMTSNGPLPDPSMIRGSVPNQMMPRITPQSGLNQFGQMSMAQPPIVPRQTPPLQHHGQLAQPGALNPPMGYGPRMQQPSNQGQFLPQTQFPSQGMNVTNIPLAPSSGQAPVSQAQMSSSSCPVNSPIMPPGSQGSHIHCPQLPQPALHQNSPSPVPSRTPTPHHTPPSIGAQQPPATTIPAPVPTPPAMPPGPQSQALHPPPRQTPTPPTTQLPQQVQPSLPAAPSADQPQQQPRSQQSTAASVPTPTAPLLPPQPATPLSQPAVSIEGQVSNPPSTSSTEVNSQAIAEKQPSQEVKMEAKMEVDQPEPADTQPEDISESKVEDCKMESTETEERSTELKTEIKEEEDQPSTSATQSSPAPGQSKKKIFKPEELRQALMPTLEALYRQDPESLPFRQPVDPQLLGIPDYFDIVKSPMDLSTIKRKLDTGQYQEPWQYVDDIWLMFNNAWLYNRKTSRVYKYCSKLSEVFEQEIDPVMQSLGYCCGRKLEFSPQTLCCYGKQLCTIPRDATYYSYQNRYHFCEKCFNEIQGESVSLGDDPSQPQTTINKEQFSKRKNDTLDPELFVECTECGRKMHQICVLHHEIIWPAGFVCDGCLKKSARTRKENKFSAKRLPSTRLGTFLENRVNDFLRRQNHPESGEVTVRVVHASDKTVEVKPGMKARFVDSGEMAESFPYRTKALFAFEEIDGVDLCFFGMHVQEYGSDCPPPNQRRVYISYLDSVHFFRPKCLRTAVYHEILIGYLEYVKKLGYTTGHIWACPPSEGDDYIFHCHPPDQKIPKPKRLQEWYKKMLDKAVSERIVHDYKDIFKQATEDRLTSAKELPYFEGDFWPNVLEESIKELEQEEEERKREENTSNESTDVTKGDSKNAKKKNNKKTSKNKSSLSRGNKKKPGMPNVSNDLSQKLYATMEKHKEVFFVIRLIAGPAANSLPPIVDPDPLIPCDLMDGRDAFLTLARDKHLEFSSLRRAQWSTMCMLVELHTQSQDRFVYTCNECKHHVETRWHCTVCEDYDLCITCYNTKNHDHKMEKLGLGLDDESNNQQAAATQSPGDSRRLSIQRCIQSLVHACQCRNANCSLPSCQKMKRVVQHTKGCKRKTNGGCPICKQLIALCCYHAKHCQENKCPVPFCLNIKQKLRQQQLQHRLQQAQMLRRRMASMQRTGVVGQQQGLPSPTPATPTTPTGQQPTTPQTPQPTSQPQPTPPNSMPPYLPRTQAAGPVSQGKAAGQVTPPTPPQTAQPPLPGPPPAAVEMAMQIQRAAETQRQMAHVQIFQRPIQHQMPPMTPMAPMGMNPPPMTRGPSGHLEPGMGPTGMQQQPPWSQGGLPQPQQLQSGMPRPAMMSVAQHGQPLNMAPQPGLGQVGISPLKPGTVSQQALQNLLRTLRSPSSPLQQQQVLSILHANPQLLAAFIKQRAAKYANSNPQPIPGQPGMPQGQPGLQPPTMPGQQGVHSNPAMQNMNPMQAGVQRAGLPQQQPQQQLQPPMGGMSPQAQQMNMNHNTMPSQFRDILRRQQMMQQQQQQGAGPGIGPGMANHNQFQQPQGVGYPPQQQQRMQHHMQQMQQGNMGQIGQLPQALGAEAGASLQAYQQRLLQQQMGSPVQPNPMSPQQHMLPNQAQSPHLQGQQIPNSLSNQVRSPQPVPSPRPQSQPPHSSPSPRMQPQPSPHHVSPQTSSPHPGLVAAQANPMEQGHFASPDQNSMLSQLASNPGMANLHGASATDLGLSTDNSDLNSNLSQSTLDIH
Chain of CREBBP (Q92793 whole entry): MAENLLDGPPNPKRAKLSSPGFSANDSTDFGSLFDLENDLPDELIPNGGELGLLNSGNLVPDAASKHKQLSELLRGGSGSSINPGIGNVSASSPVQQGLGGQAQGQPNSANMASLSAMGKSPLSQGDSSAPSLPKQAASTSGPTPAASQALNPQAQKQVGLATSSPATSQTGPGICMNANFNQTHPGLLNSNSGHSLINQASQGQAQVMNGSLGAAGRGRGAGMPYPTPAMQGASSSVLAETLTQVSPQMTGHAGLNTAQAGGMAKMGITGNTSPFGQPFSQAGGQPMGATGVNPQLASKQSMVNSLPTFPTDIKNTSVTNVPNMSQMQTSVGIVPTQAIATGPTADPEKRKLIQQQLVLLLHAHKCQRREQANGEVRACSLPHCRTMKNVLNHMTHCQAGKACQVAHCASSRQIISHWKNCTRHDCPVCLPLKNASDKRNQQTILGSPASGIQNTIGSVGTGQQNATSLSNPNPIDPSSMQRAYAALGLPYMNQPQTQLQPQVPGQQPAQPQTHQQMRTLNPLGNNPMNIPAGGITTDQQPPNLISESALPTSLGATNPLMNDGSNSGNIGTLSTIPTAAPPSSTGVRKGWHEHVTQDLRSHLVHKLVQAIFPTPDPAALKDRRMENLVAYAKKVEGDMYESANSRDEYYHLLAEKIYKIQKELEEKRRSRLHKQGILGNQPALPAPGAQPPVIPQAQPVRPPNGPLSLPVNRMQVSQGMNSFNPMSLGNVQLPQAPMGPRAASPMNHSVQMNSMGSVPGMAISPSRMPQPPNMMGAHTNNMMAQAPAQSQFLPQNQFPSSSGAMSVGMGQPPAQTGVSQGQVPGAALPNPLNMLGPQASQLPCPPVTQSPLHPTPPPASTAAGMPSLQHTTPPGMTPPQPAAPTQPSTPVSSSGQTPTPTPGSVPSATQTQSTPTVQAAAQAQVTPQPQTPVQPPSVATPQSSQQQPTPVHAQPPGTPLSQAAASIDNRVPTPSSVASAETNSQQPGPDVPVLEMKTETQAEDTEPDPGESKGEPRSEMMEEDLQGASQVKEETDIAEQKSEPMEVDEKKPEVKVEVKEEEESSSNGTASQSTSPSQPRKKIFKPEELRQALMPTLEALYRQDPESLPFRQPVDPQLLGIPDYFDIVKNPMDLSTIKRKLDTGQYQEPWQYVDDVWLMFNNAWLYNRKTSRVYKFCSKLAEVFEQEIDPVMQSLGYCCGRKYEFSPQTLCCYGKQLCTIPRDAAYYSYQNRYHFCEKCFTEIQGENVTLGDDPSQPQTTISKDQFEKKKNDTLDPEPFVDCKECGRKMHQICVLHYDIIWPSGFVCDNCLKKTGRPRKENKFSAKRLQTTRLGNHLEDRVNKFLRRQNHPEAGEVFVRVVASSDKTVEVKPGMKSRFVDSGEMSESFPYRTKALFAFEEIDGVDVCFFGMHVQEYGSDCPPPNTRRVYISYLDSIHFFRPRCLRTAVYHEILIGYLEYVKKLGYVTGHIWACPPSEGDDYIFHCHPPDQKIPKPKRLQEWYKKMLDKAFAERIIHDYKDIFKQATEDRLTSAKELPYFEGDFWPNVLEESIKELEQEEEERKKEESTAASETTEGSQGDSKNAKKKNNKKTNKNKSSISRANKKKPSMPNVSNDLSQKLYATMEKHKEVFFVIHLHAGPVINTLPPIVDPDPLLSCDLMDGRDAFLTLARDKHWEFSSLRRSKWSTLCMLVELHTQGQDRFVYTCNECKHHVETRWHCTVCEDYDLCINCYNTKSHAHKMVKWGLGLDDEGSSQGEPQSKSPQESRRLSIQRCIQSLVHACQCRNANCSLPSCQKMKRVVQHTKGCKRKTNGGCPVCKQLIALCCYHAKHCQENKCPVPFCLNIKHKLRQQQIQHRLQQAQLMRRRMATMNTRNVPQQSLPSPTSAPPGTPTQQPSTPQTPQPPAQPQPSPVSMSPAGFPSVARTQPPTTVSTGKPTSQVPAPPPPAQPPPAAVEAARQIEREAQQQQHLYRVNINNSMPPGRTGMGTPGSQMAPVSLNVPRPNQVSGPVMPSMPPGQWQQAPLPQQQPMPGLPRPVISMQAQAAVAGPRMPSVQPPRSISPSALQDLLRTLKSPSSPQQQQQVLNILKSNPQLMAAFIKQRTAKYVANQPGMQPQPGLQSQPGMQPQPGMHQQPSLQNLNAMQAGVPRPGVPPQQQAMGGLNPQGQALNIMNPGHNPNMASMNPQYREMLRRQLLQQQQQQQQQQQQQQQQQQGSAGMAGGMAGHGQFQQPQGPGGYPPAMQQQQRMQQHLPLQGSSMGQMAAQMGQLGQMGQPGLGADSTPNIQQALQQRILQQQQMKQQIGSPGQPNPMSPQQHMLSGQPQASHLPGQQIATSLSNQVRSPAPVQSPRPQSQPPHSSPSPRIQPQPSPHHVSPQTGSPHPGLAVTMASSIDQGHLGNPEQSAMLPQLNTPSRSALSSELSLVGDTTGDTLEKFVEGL

On to `COc1ccc(C2(C(=O)N3C[C@H](F)C[C@@H]3C(=O)Nc3ccc4[nH]ncc4n3)CCCCC2)cc1` [Example 35, (4R)-4-Fluoro-1-{[1-(4-methoxyphenyl)cyclohexyl]carbonyl}-N-1H-pyrazolo[4,3-b]pyridin-5-yl-D-prolinamide], for which the IC50 on EP300 stood at 24 nM; against CREBBP it was 10 nM. The “Tumor Growth Inhibition Rate” value is listed as 51% in the assay with TE-8 cells [1], 66% in the assay with KARPAS-422 cells and 44% with LK2 cells [2].

For the compound `COc1ccc(C2(C(=O)N3C[C@H](F)C[C@@H]3C(=O)Nc3ccc4[nH]ncc4n3)CCC(F)(F)CC2)cc1` [Example 60, (4R)-1-{[4,4-Difluoro-1-(4-methoxyphenyl)cyclohexyl]carbonyl}-4-fluoro-N-1H-pyrazolo[4,3-b]pyridin-5-yl-D-prolinamide], the IC50 was found to be 28 nM against EP300, 67 nM on CREBBP and 54 nM in the assay with H3K27Ac. Also, the “Tumor Growth Inhibition Rate” value with VCaP cells (dose 6 mg/kg/day, QD×16, 24 days after transplantation) amounted to 89%; with NMC10-15 cells (dose 3 mg/kg/day), 99%. For the same compound, the GI50 with TE-8 cells [3] came to 311 nM; in the assay with LK2 cells [4] it was 211 nM.

In the case of `O=C(Nc1ccc2[nH]ncc2n1)[C@H]1C[C@@H](F)CN1C(=O)C1(c2ccc(OC(F)F)cc2)CCC(F)(F)CC1` [Example 84, (4R)-1-({1-[4-(Difluoromethoxy)phenyl]-4,4-difluorocyclohexyl}carbonyl)-4-fluoro-N-1H-pyrazolo[4,3-b]pyridin-5-yl-D-prolinamide], the figures for the IC50 against EP300, on CREBBP and with H3K27Ac were 26 nM, 39 nM and 22 nM, respectively. For the same compound, the “Tumor Growth Inhibition Rate” value in the assay on VCaP cells (dose 10 mg/kg/day, QOD×8, 24 days after transplantation) is listed as 77%; in the assay on NMC10-15 cells (dose 0.3 mg/kg/day), 66%. Further, the GI50 in the assay on TE-8 cells [3] stood at 152 nM; in the assay on LK2 cells [4] it was 97.2 nM.

One may read the IC50 as the concentration needed to halve the response being measured. For orientation: GI50 means the concentration giving 50% growth inhibition. A higher GI50 goes with lower sensitivity of the cells.
